The results in this text go back to article PMC5107945, “Abscinazole-E3M, a practical inhibitor of abscisic acid 8′-hydroxylase for improving drought tolerance” (Scientific Reports, 2016).

pIC50, pKi: −log10 of the molar value.

The target in data set [1] is T1, Arabidopsis recombinant CYP707A3 (ABA 8′-hydroxylase) (Arabidopsis thaliana, UniProt Q9FH76).
T1 construct: made in house; host or cells: Escherichia coli (microsomal/membrane fraction)
T1 sequence (Q9FH76 1-463): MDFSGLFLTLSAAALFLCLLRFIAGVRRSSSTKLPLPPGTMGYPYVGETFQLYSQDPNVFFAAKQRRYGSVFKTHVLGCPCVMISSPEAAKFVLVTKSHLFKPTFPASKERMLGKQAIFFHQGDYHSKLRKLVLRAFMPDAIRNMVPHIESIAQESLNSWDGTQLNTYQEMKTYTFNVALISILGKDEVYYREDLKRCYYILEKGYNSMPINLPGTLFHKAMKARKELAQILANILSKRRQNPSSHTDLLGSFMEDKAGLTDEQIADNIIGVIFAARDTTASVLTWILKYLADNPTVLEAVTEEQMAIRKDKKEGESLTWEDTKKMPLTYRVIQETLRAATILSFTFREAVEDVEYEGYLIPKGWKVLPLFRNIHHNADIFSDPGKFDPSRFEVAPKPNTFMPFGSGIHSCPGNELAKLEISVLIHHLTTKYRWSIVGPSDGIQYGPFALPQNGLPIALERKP
As to the kind of experiment: CYP707A3 inhibition assay (decrease of enzymatic product PA). Type of data set: biochemical. The settings on record: Arabidopsis recombinant CYP707A3 expressed in E. coli. How it is done: The inhibitory activities of Abz-T compounds against ABA 8′-hydroxylase were examined using recombinant Arabidopsis CYP707A3 co-expressed with Arabidopsis P-450 reductase (ATR1) in Escherichia coli[22]. The activity levels were evaluated based on the decrease in the amount of the enzymatic product, PA.
Reactions were initiated by adding NADPH, stopped by the addition of 25 μL of 1 M NaOH and then acidified with 50 μL of 1 M HCl. Reaction products were extracted by loading the mixture onto an Oasis HLB cartridge (1 mL, 30 mg; Waters Corp., Milford, MA, USA) and were washed with 1 mL of 10% MeOH in H2O (v/v) containing 1% acetic acid (AcOH, v/v). The enzyme products were then eluted with 1 mL of MeOH containing 1% AcOH, and the eluate was concentrated in vacuo. Each dried sample was then dissolved in 50 μL of MeOH, and a 20-μL volume was subjected to HPLC (Prominence; Shimadzu Corp., Kyoto, Japan). HPLC conditions were as follows: the octadecylsilyl column was composed of Hydrosphere C18 (150 × 6.0 mm, YMC Co., Ltd., Kyoto, Japan), and the solvent comprised 17% acetonitrile (MeCN) in H2O containing 0.05% AcOH (v/v). The flow rate was 1.0 mL min^−1, and detection was at 254 nm. Enzyme activity was evaluated by determining the amount of PA in control experiments prior to taking each set of measurements. The inhibition constants were determined using the Enzyme Kinetics module of the SigmaPlot 10 software (Systat Software, Inc., San Jose, CA, USA) after determining the inhibition mode by plotting the reaction velocity in the presence and absence of the inhibitor on a double-reciprocal plot. The inhibition ratio was defined as [(A − B)/A] × 100, where A = the amount of PA when the inhibitor was absent from the reaction mixture (control), and B = the amount of PA when the inhibitor was present. All of the tests were conducted at least three times.

In data set [2] the test system is MAPKKK18 promoter GUS reporter. Put plainly: ABA-responsive MAPKKK18::GUS reporter analysis. The data set is classed as in vivo, Arabidopsis. The settings on record: co-treatment with ABA; 5 or 25 μM, 6 h; Fig. S6. How it is done:
MAPKKK18::GUS reporter-containing transgenic Arabidopsis[32] were grown for 6 d on agar plates containing 1/2 MS and 0.5% sucrose. Seedlings were incubated in 1/2 MS solutions containing 0.5% sucrose with chemicals for 6 h. GUS activities were detected using a reaction buffer containing 50 mM sodium phosphate buffer, 2.5 mM potassium ferrocyanide, 2.5 mM potassium ferricyanide and 1 mM X-gluc. The GUS enzyme reaction was performed at 30 °C for ~12 h. The reaction was stopped by adding 70% EtOH. Tissue-specific GUS staining was observed by microscope after bleaching the chlorophyll pigment.
Supplementary Figure 6. (−)-Abz-E3M enhanced the ABA-inducible MAPKKK18 expression level. Six-day-old seedlings of MAPKKK18::GUS reporter-containing transgenic plants were incubated in solutions containing either 5 or 25 µM of (−)-Abz-E3M

Data set [3] has as its system ABA-responsive genes MAPKKK18, RD29A and RD29B. Put plainly: qRT-PCR of ABA-responsive genes in Arabidopsis seedlings. The settings on record: 10-day-old seedlings, 6 h. Type of data set: in vivo, Arabidopsis (Columbia accession). The method, then: Figure 5 Effects of (−)-Abz-E3M on the expression levels of Arabidopsis ABA-responsive genes. Expression of MAPKKK18, RD29A and RD29B after treatment with (−)-Abz-E2B or (−)-Abz-E3M in the absence or presence of 0.25 μM ABA (n = 4, error bar represents s.d.).
Arabidopsis (Columbia accession) were grown for 10 d on agar plates containing 1/2 Murashige and Skoog (MS) and 0.5% sucrose at 22 °C under an 18/6-h light/dark cycle. Seedlings were incubated in the chemical solutions for 6 h. Total RNA from seedlings was isolated using the Plant RNA purification reagent (Thermo Fisher Scientific) according to the manufacturer’s instructions. cDNA was synthesised using the QuantiTec reverse transcription kit (Qiagen). Maize (cv. Gold rush, Sakata Seed Corporation) seedlings were grown in 100-mL pots containing 75 g of moist soil in a glass house. The root parts of the maize seedlings were washed with tap water and dipped in 100 μM (−)-Abz-E3M chemical solution containing 0.05% Tween-20 overnight. Total RNA from maize seedlings was isolated using an RNeasy mini kit (Qiagen) with the ‘on-column’ DNA digestion method. cDNA was synthesised using a High-Capacity cDNA Reverse Transcription Kit (Thermo Fisher Scientific). Real-time PCR using SYBR Premix Ex Taq™ II (Takara) was performed with Step One-Plus (Thermo Fisher Scientific). The primer sets are shown in Supplemental Table S1.
Background: Real-time PCR tracks product formation cycle by cycle.

As a reminder, the pIC50 is the negative decadic logarithm of the IC50, by convention in mol/L. The pKi is the Ki on a negative log10 scale, so that one unit is a factor of ten. Regarding abscinazole-E3M [(−)-6], the pIC50 in data set [1] (5 μM ABA as substrate, read-out: CYP707A IC50) was 7.19. In data set [1] (ABA 1–64 μM, read-out: CYP707A KI), the pKi was 7.46. Besides, in data set [2], the “ABA-inducible GUS staining (MAPKKK18::GUS)” value is “enhanced the ABA-inducible GUS staining”. Further, the entries for the “Expression of ABA-responsive genes MAPKKK18, RD29A and RD29B” value in data set [3] (absence of exogenous ABA) and in data set [3] (co-treatment with 0.25 μM ABA) were “did not induce the expression” and “enhanced the expression levels of ABA-responsive genes”, respectively.
